What was measured:
[1] = biological target: T1, Nuclear receptor ROR-gamma (Homo sapiens, UniProt P51449); experiment: Inverse agonist activity at europium-labeled human RORgammat LBD assessed as inhibition of XL665-labeled co-activator SRC1 recruitment incubated for 1 hr by dual FRET assay
T1 sequence (P51449 whole entry): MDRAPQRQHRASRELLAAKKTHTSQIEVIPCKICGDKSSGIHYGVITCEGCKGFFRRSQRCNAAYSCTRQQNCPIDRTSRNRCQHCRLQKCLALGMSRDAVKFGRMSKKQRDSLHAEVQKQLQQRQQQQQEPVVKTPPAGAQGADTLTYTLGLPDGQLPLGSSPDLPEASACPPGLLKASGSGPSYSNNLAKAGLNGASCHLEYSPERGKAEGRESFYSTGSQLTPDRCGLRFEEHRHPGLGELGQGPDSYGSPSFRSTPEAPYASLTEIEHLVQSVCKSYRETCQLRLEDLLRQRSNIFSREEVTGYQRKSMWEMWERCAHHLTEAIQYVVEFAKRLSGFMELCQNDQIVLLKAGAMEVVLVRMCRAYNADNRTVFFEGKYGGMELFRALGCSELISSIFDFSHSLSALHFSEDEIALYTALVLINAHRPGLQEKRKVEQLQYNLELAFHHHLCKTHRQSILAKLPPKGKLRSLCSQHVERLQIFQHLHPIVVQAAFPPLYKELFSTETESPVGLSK

[2] = biological target: T2, Nuclear receptor ROR-gamma (Homo sapiens) (UniProt P51449); experiment: Inverse agonist activity at europium-labeled human RORgammat LBD assessed as inhibition of XL665-labeled co-activator SRC1 recruitment incubated for 1 hr by dual FRET assay relative to control; settings: concentration not given here
T2 sequence (whole entry): T1 sequence (P51449 whole entry)

[3] = biological target: T1, Nuclear receptor ROR-gamma; experiment: Agonist activity at human RORgammat LBD expressed in HEK293T cells incubated for 16 to 20 hrs by Gal4-luciferase reporter gene assay; type: cell-based
[4] = biological target: T1, Nuclear receptor ROR-gamma; experiment: Agonist activity at europium-labeled human RORgammat LBD assessed as induction of XL665-labeled co-activator SRC1 recruitment incubated for 1 hr by dual FRET assay
[5] = biological target: T3, Nuclear receptor ROR-gamma (Mus musculus) (UniProt P51450); experiment: Agonist activity at RORgammat in C57 mouse CD4+ T cells assessed as induction of Th17 cells differentiation by measuring increase in IL17 production measured after 4 days by flow cytometry analysis relative to control; type: cell-based; settings: CD4+ve Th, filed as agonist, time 4.0 day
T3 sequence (whole entry): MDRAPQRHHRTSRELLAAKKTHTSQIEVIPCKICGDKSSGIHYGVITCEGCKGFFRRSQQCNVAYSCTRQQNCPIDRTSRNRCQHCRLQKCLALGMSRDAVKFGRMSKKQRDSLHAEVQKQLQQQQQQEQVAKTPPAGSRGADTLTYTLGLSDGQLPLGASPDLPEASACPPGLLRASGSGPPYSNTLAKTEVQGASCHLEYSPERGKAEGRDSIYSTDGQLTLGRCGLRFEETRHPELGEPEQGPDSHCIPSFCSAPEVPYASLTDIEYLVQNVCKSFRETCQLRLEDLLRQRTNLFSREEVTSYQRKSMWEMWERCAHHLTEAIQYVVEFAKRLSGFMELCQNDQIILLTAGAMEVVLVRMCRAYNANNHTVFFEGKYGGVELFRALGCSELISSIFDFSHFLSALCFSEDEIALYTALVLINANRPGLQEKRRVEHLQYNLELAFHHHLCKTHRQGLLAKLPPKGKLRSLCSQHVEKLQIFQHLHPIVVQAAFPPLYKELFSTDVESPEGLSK

EC50 [4] [µM]	Compound	also measured
–	CC(=O)N1CCN(c2ccc3c(c2)CCN(S(=O)(=O)N(C)Cc2ccc(C(F)(F)F)cc2)C3)CC1	EC50 [1]: 1.98 µM; inhibition [2]: 25.8%
0.021	CC(=O)N1CCN(c2ccc3c(c2)CCN(S(=O)(=O)N(C)Cc2c(F)cccc2Cl)C3)CC1	EC50 [3]: 0.19 µM; max activation [5]: 167%
12.3	CC(=O)N1CCN(c2ccc3c(c2)CCN(S(=O)(=O)N(C)Cc2ccccn2)C3)CC1	–
1.02	CC(=O)N1CCN(c2ccc3c(c2)CCN(S(=O)(=O)N(C)Cc2ccc(F)cc2)C3)CC1	–
2.23	CC(=O)N1CCN(c2ccc3c(c2)CCN(S(=O)(=O)N(C)CCc2ccccc2)C3)CC1	–
0.023	CC(=O)N1CCN(c2ccc3c(c2)CCN(S(=O)(=O)N(C)Cc2c(F)cccc2Cl)C3)[C@H](C)C1	–
0.148	CC(=O)N1CCN(c2ccc3c(c2)CCN(S(=O)(=O)N(C)Cc2cc(F)ccc2F)C3)CC1	–
0.57	CC(=O)N1CCN(c2ccc3c(c2)CCN(S(=O)(=O)N(C)CCCc2ccccc2)C3)CC1	–
6.24	CC(=O)N1CCN(c2ccc3c(c2)CCN(S(=O)(=O)N(C)c2nccc(C(F)(F)F)n2)C3)CC1	–
0.982	CC(=O)N1CCN(c2ccc3c(c2)CCN(S(=O)(=O)N(C)Cc2ccccc2Cl)C3)CC1	EC50 [3]: 0.74 µM; max activation [5]: 93%
0.221	CC(=O)N1CCN(c2ccc3c(c2)CCN(S(=O)(=O)N(C)Cc2ccccc2C)C3)CC1	–
0.215	CC(=O)N1CCN(c2ccc3c(c2)CCN(S(=O)(=O)N(C)Cc2cccc(C)c2)C3)CC1	–
0.546	CC(=O)N1CCN(c2ccc3c(c2)CCN(S(=O)(=O)N(C)Cc2cccc(F)c2)C3)CC1	–
0.138	CC(=O)N1CCN(c2ccc3c(c2)CCN(S(=O)(=O)N(C)Cc2cccc(Cl)c2)C3)CC1	–
0.358	CC(=O)N1CCN(c2ccc3c(c2)CCN(S(=O)(=O)N(C)Cc2ccccc2F)C3)CC1	–
–	CC(=O)N1CCN(c2ccc3c(c2)CCCN3S(=O)(=O)N(C)Cc2ccccc2Cl)CC1	IC50 [1]: 0.167 µM
0.56	CC(=O)N1CCN(c2ccc3c(c2)CCN(S(=O)(=O)N(C)Cc2ccccc2)C3)CC1	–

Reference: ChEMBL document CHEMBL4825693, “Discovery of novel N-sulfonamide-tetrahydroisoquinolines as potent retinoic acid receptor-related orphan receptor γt agonists” (Eur J Med Chem, 2021)
